In PMC4913735, “Non‐glycosidic compounds can stimulate both human and mouse iNKT cells” (European Journal of Immunology, 2016):

Tests used:
human iNKT cells = assay: Human iNKT‐cell activation by lipid‐pulsed hCD1d C1R cells, IFN‐γ ELISA; assay type: cell-based; details: compared with α‐GalCer; particularly below 1 ng/mL
Procedure: To this end, hCD1d‐expressing C1R cells were loaded overnight with serial dilutions of lipids (α‐GalCer, ThrCer, ThrCer 6, and ThrCer 7) and then incubated with human iNKT cells. iNKT‐cell activation was assessed by measuring IFN‐γ production in the supernatant by ELISA.
Concentrations of murine IFN‐γ and IL‐4 in serum were determined using standard sandwich ELISAs using the R4‐6A2 capture Ab for IFN‐γ (eBioscience), and the ID11 capture Ab for IL‐4 (Endogen). Biotinylated XMG1.2 (eBioscience) was used as the detection Ab for IFN‐γ and biotinylated BVD6‐24G2 (eBioscience) was used as the detection Ab for IL‐4. Human IFN‐γ in supernatants was determined using the capture Ab NIB42 (BD Pharmingen) and biotinylated 4S.B3 (BD Pharmingen) as the detection Ab.
Human iNKT‐cells were expanded as described previously 34. […] The presence of IFN‐γ was detected in supernatants by ELISA 12. […] DC maturation was determined by the upregulation of CD86 by flow cytometry on a FACSCalibur with CellQuest software (BD) and analyzed with FlowJo software (Tree Star). For in vivo murine APC phenotype analysis the expression of CD86 or CD40 on CD11c^+ APCs from spleen were determined after 18 h post i.v. of 1 μg lipids on a CyAn cytometer and analyzed with FlowJo software (Tree Star).

iNKT hybridoma DN32.D3 = assay: CD11c+ splenocytes from lipid‐injected Jα18 knockout mice stimulating DN32.D3 (IL‐2 ELISA); assay type: in vivo; details: 1 μg i.v.; for Decline in stimulation of DN32.D3 by CD11c+ cells, 64 h compared with 12 h post injection: Jα18 knockout mice, IL‐2
Procedure: Figure 6 Enhanced bioavailability of ThrCer 6 as compared to ThrCer and α‐GalCer. (A) Mouse BMDCs were pulsed for 6 h with 100, 10, or 1 ng/mL of indicated iNKT‐cell agonists. Cells were washed and suspended in tissue culture medium in the absence of iNKT‐cell agonists for up to 24 h. Washed BMDCs were then cocultured with the murine iNKT cell hybridoma DN32.D3. Hundred percentage activation was defined for each iNKT‐cell agonist as the IL‐2 produced by DN32.D3 cocultured with BMDCs that were left with iNKT‐cell agonists throughout the pre coculture period (30 h). Diminished bioavailability is expressed as a percentage of the maximum DN32.D3 activation by each iNKT‐cell agonist. Number of replicates = 4. (B and C) Jα18 knockout mice were injected i.v. with 1 μg of ThrCer 6, α‐GalCer, or vehicle. Twelve hours or 64 h later, CD11c^+‐purified cells were cocultured with 5 × 10^4 DN32.D3 at different ratios. (B) IL‐2 in the supernatant from coculture of DN32.D3 with CD11c^+ cells isolated after 64 h was determined by ELISA. (C) IL‐2 levels of the same culture as percentage of the IL‐2 produced by DN32.D3 coincubated with CD11c^+ cells isolated 12 h after injection of lipids. […] Significance was calculated between α‐GalCer and ThrCer 6. *p < 0.05, **p < 0.01, ***p < 0.001, ****p < 0.0001; Student's t‐test.
To rule out the possibility that the results of these experiments could be modulated by the in vivo killing of CD11c^+ cells by iNKT cells, Jα18 knockout mice, lacking iNKT cells, were injected with ThrCer 6, α‐GalCer or vehicle, and then culled 12 or 64 h later. CD11c^+ cells enriched from the spleens were then coincubated with DN32.D3 for 17 h and IL‐2 production was measured in the supernatant (Fig. 6B and C).
Levels of iNKT‐cell agonists, presented by CD1d on the surface of cells, were assessed by the amount of IL‐2 secreted by iNKT hybridoma DN32.D3 coincubated with the presenting cells for 17–24 h. […] Levels of IL‐2 in the supernatant were determined by ELISA. iNKT‐cell hybridoma DN32.D3 was kindly provided by A. Bendelac 45.

NK cells = assay: In vivo transactivation of NK cells (intracellular IFN‐γ, CD69) by flow cytometry; design: species or system mice; details: 1 μg i.v.; splenocytes at 12, 24 or 33 h
Procedure: Supplementary file EJI-46-1224-s001.pdf: Figure S1. […] Mice were immunized i.v. with 1 μg of lipids and splenocytes stained with anti‐CD11c and anti‐CD40 mAb to determine the extent of maturation by the expression of CD40 on gated DCs (CD11c+ cells) using flow cytometry. (n=3/group) Median Fluorescent Intensity=MFI. Error bars are mean ± SEM. Figure S2. IFN‐γ in serum of mice injected intramuscularly (i.m.) with iNKT cell agonists. C57BL/6 mice (n=4) or syngeneic CD1d knockout Mice (n=2) were injected intramuscularly with α‐GalCer, ThrCer 6 or vehicle. 18 hours later blood samples were tested for IFN‐γ using ELISA. As controls, mice (n=2) were injected intravenously with α‐GalCer or ThrCer 6. Error bars are mean ±SEM. one of two experiment is shown *p=0.0114. Figure S3. Transactivation of NK cells using non‐glycosidic analogues. Mice were immunized i.v. with 1 μg of lipids and sacrificed at 12 h, 24 h or 33 h post injection (n=3/group). Splenocytes were assessed by flow cytometry for the transactivation of NK cells (DX5+NK1.1+CD3‐ cells) using (B) the surface activation marker, CD69, or (A) intracellular IFN‐γ staining. Error bars are mean ± SEM. *p < 0.05. Representative of two independent experiments Figure S4. […] Data relating to numbers of ovalbumin specific T cells was analysed using the following gating stratagy: From top left to right and then bottom left to right. […]

Row | Compound | Activation of human iNKT cells (IFN‐γ in supernatant) (human iNKT cells) | Decline in stimulation of DN32.D3 by CD11c+ cells, 64 h compared with 12 h post injection (iNKT hybridoma DN32.D3) | Activation of DN32.D3 by splenic CD11c+ cells 64 h after in vivo injection (iNKT hybridoma DN32.D3; compared with α‐GalCer‐injected mice) | Transactivation of NK cells (intracellular IFN‐γ, CD69) (NK cells)
1 | CCCCCCCCCCCCCCCCCCCCCCCCCC(=O)N[C@@H](CO[C@H]1CC[C@H](O)[C@H](O)[C@H]1O)[C@H](O)[C@H](O)CCCCCCCCCCCCCC [ThrCer 6] | greater activation of human iNKT cells | less than 50% | more potent activators of DN32.D3 cells | comparable transactivation of NK cells
2 | CCCCCCCCCCCCCCCCCCCCCCCCCC(=O)NC(COC1CCCC(O)C(O)C1O)C(O)C(O)CCCCCCCCCCCCCC (stereo not shown) [ThrCer 7] | greater activation of human iNKT cells | – | – | –
3 | CCCCCCCCCCCCCCCCCCCCCCCCCC(=O)N[C@@H](CO[C@H]1O[C@H](CO)[C@H](O)[C@H](O)[C@H]1O)[C@H](O)[C@H](O)CCCCCCCCCCCCCC [α‐GalCer, α‐galactosylceramide, reference compound] | – | more than 90% | – | comparable transactivation of NK cells
